The results in this text go back to patent publication US7160911B2, “Diarylcycloalkyl derivatives, process for their preparation and their use as pharmaceuticals” (Sanofi-Aventis Deutschland GmbH, priority 2003, dated 2007).

This assay has as its target T1, human PPARalpha (Homo sapiens, UniProt Q07869).
T1 construct: amino acids S167–Y468; expressed in transfected cells; host or cells: HEK (human embryo kidney) cells, stably transfected with the pcDNA3 construct
T1 sequence (Q07869 167-468): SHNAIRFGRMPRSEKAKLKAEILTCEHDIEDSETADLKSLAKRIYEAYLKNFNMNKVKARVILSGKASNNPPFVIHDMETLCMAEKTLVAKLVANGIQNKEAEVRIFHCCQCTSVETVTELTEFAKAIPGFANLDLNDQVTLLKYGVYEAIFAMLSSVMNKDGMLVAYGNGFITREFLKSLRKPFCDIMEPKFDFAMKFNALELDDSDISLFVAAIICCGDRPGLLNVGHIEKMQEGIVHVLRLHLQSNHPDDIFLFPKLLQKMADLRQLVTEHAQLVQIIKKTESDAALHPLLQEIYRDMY
In words: Cellular PPARalpha assay (stably transfected HEK luciferase reporter cell line). The class given is cell-based. The following applies: PPARalpha reporter cell line (HEK, GR-GAL4-humanPPARalpha-LBD). As for the experimental part: Determination of EC50 Values of PPAR Agonists in the Cellular PPARalpha Assay
The potency of substances which bind to human PPARalpha and activate in an agonistic manner is analyzed using a stably transfected HEK cell line (HEK=human embryo kidney) which is referred to here as PPARalpha reporter cell line. It contains two genetic elements, a luciferase reporter element (pdeltaM-GAL4-Luc-Zeo) and a PPARalpha fusion protein (GR-GAL4-humanPPARalpha-LBD) which mediates expression of the luciferase reporter element depending on a PPARalpha ligand. The stably and constitutively expressed fusion protein GR-GAL4-humanPPARalpha-LBD binds in the cell nucleus of the PPARalpha reporter cell line via the GAL4 protein portion to the GAL4 DNA binding motifs 5′-upstream of the luciferase reporter element which is integrated in the genome of the cell line.
There is only little expression of the luciferase reporter gene without addition of a PPARalpha ligand if fatty acid-depleted fetal calf serum (cs-FCS) is used in the assay. PPARalpha ligands bind and activate the PPARalpha fusion protein and thereby bring about expression of the luciferase reporter gene. The luciferase which is formed can be detected by means of chemiluminescence via an appropriate substrate.
The PPARalpha reporter cell line was prepared in 2 stages. Firstly, the luciferase reporter element was constructed and stably transfected into HEK cells. For this purpose, five binding sites of the yeast transcription factor GAL4 (each 5′-CGGAGTACTGTCCTCCGAG-3′) (SEQ ID No. 1) were cloned in 5′-upstream of a 68 bp-long minimal MMTV promoter (Genbank Accession # V01175). The minimal MMTV promoter section contains a […] and a TATA element in order to enable efficient transcription by RNA polymerase II. The cloning and sequencing of the GAL4-MMTV construct took place in analogy to the description of Sambrook J. et. al. (Molecular cloning, Cold Spring Harbor Laboratory Press, 1989). Then the complete Photinus pyralis gene (Genbank Accession # M15077) was cloned in 3′-downstream of the GAL4-MMTV element. After sequencing, the luceriferase reporter element consisting of five GAL4 binding sites, MMTV promoter and luciferase gene was recloned into a plasmid which confers zeocin resistance in order to obtain the plasmid pdeltaM-GAL4-Luc-Zeo. This vector was transfected into HEK cells in accordance with the statements in Ausubel, F. M. et al. (Current protocols in molecular biology, Vol. 1–3, John Wiley & Sons, Inc., 1995).
In a second step, the PPARalpha fusion protein (GR-GAL4-humanPPARalpha-LBD) was introduced into the stable cell clone described. For this purpose, initially the cDNA coding for the N-terminal 76 amino acids of the glucocorticoid receptor (Genbank Accession # P04150) was linked to the cDNA section coding for amino acids 1–147 of the yeast transcription factor GAL4 (Genbank Accession # P04386). The cDNA of the ligand-binding domain of the human PPARalpha receptor (amino acids S167–Y468; Genbank Accession # S74349) was cloned in at the 3′-end of this GR-GAL4 construct. The fusion construct prepared in this way (GR-GAL4-humanPPARalpha-LBD) was recloned into the plasmid pcDNA3 (from Invitrogen) in order to enable constitutive expression therein by the cytomegalovirus promoter. This plasmid was linearized with a restriction endonuclease and stably transfected into the previously described cell clone containing the luciferase reporter element. The finished PPARalpha reporter cell line which contains a luciferase reporter element and constitutively expresses the PPARalpha fusion protein (GR-GAL4-human PPARalpha-LBD) was isolated by selection with zeocin (0.5 mg/ml) and G418 (0.5 mg/ml).
The activity of PPARalpha agonists is determined in a 3-day assay which is described below: […]
Background: A reporter such as luciferase makes a cellular process visible.

One may read the EC50 as the concentration giving half of the maximal effect. `Cc1cccc(CO[C@@H]2CCC[C@H](OCc3nc(-c4ccc5ccccc5c4)oc3C)C2)c1C(=O)O` [Example 1, 2-methyl-6-[(1R,3S)3-(5-methyl-2-naphthalen-2-yloxazol-4-yl-methoxy)cyclohexyloxymethyl]benzoic acid] had a half-maximal effective concentration (EC50) of 0.2 nM.
Under `Cc1cccc(CO[C@@H]2CCC[C@H](OCc3nc(-c4ccc5c(c4)OCCO5)oc3C)C2)c1C(=O)O` [Example 3] stands 0.2 nM.
Under `Cc1ccc(-c2nc(CO[C@H]3CCC[C@@H](OCc4cccc(C)c4C(=O)O)C3)c(C)o2)o1` [Example 4, 2-methyl-6-{(1R,3S)-3-[5-methyl-2-(5-methylfuran-2-yl)oxazol-4-ylmethoxy]cyclohexyloxy-methyl}benzoic acid] stands 0.6 nM; under `COCCOc1cc(-c2nc(CO[C@H]3CCC[C@@H](OCc4cccc(C)c4C(=O)O)C3)c(C)o2)cc(C(F)(F)F)c1` [Example 10], 0.3 nM.
Under `Cc1ccc(-c2nc(CO[C@H]3CCC[C@@H](OCc4cccc(C)c4C(=O)O)C3)c(-c3ccccc3)o2)cc1` [Example 11, 2-methyl-6-[(1R,3S)-3-(5-phenyl-2-p-tolyloxazol-4-ylmethoxy)cyclohexyloxy-methyl]benzoic acid] stands 27 nM; under `COc1cccc(-c2nc(CO[C@H]3CCC[C@@H](OCc4cccc(C)c4C(=O)O)C3)c(-c3ccccc3)o2)c1` [Example 12, 2-{(1R,3S)-3-[2-(3-methoxyphenyl)-5-phenyloxazol-4-ylmethoxy]cyclohexyloxy-methyl}-6-methylbenzoic acid], 34 nM; under `Cc1cccc(CO[C@@H]2CCC[C@H](OCc3coc(C4CCCCC4)n3)C2)c1C(=O)O` [Example 13, 2-[(1R,3S)-3-(2-cyclohexyloxazol-4-ylmethoxy)cyclohexyloxymethyl]-6-methylbenzoic acid], 0.06 nM.
